Results as given in ChEMBL document CHEMBL5465560, “Selectivity Literature for EUbOPEN Chemogenomic Library” (2024).

Key:
[1] = biological target: T1, Dual specificity protein kinase TTK (Homo sapiens) (UniProt P33981); experiment: Selectivity interaction (Ambit KINOMEscan and KiNATiv profiling in Jurkat cells) EUB0000090b TTK; assay type: cell-based; conditions: at 1 µM
T1 sequence (whole entry): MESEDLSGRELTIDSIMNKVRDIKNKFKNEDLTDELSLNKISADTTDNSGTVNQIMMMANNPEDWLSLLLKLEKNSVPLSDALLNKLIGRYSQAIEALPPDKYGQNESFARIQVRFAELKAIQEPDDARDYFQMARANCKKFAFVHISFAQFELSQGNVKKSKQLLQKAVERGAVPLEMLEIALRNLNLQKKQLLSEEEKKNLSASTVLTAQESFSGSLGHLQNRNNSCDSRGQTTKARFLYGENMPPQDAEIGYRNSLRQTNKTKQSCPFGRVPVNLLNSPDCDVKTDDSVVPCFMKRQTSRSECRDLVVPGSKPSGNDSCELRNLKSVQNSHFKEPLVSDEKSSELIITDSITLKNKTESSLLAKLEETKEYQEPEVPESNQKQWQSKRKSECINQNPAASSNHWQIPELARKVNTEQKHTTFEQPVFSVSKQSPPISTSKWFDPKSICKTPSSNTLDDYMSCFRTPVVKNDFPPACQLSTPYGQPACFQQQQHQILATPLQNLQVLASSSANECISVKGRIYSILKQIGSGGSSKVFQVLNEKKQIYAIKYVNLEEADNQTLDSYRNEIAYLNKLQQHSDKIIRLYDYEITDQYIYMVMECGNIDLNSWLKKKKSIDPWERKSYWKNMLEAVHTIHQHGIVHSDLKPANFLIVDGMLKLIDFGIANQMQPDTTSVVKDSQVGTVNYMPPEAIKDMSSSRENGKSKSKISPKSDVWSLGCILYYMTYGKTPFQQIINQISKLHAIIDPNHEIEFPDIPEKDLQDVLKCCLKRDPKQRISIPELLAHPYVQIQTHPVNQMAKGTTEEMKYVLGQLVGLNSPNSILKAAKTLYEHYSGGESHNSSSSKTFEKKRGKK

[2] = biological target: Calcium/calmodulin-dependent protein kinase kinase 2 (Homo sapiens) (UniProt Q96RR4); experiment: Selectivity interaction (KinomeScan (DiscoverX)) EUB0001079a CAMKK2; conditions: at 1 µM
[3] = biological target: Tyrosine-protein kinase Fes/Fps (Homo sapiens) (UniProt P07332); experiment: Selectivity interaction (ActivX KiNativ screen (ex vivo kinase selectivity in human PBMCs)) EUB0001619a FES; assay type: cell-based; conditions: PBMC, at 1 µM
[4] = biological target: 5'-AMP-activated protein kinase catalytic subunit alpha-1 (Homo sapiens, UniProt Q13131); experiment: Selectivity interaction (ActivX KiNativ screen (kinase selectivity in THP-1 cell lysates)) EUB0000639a PRKAA1; assay type: subcellular; conditions: lysate, at 1 µM
5'-AMP-activated protein kinase catalytic subunit alpha-1, sequence (Q13131 whole entry, looked up): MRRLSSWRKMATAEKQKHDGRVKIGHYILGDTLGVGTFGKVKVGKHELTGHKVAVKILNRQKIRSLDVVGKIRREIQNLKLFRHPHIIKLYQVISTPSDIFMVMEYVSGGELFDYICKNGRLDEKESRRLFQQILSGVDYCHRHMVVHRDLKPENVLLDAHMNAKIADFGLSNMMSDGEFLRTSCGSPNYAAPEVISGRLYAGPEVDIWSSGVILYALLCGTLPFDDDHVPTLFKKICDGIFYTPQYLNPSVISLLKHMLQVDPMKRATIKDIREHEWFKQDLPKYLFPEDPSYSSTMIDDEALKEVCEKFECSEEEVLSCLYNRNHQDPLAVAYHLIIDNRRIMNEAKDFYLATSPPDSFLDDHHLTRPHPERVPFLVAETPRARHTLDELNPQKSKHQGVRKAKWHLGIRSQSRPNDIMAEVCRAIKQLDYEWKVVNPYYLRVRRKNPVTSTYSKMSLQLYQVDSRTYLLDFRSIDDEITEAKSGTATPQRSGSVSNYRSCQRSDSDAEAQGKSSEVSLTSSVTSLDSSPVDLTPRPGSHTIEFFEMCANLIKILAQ

[5] = biological target: Cyclin-dependent kinase 12 (Homo sapiens, UniProt Q9NYV4); experiment: Selectivity interaction (ActivX KiNativ screen (kinase selectivity in THP-1 cell lysates)) EUB0000639a CDK12; assay type: subcellular; conditions: lysate
Cyclin-dependent kinase 12, sequence (Q9NYV4 whole entry, looked up): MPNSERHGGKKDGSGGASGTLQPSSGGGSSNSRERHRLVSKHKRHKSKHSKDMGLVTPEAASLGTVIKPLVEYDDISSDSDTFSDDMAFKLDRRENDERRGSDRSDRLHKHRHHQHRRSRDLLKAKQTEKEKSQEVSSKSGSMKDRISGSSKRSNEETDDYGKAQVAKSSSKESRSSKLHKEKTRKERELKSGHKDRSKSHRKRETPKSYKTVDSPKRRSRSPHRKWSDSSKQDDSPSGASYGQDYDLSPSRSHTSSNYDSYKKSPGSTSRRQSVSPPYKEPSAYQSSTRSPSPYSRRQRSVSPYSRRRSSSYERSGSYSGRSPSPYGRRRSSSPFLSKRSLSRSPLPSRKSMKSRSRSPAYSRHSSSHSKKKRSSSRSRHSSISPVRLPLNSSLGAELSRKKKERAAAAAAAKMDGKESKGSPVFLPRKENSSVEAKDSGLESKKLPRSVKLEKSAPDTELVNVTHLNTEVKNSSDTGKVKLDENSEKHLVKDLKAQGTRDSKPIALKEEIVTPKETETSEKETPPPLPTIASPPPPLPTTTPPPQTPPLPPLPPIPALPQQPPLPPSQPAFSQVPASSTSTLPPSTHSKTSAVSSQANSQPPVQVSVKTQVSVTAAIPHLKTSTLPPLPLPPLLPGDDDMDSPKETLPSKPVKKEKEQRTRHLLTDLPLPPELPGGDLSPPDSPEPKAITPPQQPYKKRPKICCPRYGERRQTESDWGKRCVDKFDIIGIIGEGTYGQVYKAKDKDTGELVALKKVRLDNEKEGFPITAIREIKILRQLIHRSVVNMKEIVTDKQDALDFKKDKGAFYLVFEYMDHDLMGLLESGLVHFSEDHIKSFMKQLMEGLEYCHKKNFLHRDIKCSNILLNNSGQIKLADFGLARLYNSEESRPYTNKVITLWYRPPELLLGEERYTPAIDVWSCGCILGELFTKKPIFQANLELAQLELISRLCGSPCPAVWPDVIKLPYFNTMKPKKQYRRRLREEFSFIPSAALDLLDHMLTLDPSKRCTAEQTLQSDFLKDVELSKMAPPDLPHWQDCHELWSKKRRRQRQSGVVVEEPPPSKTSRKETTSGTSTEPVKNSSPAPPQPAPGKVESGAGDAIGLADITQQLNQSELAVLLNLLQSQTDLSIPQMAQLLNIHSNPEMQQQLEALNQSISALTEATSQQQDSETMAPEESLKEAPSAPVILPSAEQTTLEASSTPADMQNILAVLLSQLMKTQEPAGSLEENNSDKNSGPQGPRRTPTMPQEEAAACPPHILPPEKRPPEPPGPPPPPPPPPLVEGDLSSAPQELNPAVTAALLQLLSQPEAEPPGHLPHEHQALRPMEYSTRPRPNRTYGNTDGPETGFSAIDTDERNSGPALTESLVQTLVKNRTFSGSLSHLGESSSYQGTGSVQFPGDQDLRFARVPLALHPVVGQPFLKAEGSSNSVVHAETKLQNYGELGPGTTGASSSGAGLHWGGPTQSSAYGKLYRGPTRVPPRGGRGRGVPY

[6] = biological target: Serine/threonine-protein kinase MARK2 (Homo sapiens) (UniProt Q7KZI7); experiment: Selectivity interaction (ActivX KiNativ screen (kinase selectivity in THP-1 cell lysates)) EUB0000639a MARK2; assay type: subcellular; conditions: lysate, at 0.01 µM
[7] = system: Mast/stem cell growth factor receptor Kit (Homo sapiens), P10721 [L576P]; experiment: (§1) Selectivity interaction (KinomeScan (DiscoverX)) EUB0000695a KIT; conditions: at 100 nM
Mast/stem cell growth factor receptor Kit (Homo sapiens), P10721 [L576P], sequence (P10721 whole entry L576P): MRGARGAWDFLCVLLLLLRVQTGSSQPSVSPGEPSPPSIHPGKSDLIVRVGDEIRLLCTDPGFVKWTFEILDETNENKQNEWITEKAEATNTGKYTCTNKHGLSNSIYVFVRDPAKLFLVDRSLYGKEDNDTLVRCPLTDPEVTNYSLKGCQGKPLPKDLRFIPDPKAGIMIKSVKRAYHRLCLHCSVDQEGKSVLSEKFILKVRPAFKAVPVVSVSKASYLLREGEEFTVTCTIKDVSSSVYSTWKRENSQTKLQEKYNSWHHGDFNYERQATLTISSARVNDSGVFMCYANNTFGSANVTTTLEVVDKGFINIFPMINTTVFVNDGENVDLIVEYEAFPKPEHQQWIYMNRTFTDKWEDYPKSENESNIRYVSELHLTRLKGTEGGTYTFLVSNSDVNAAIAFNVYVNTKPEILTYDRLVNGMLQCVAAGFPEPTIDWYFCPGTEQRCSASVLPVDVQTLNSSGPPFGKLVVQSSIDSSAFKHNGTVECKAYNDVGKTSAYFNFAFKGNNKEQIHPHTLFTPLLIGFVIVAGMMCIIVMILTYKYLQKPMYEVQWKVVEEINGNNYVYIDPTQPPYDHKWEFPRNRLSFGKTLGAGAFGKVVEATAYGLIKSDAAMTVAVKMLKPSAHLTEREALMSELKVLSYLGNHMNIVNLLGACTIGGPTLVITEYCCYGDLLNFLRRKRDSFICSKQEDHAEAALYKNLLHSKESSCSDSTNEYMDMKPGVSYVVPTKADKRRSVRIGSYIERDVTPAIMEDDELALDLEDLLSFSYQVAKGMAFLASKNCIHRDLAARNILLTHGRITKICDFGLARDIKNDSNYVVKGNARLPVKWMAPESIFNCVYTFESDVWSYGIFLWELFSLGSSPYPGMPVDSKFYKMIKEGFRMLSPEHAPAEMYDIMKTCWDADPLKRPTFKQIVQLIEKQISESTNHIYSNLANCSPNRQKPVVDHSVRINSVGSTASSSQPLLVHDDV

[8] = system: Mast/stem cell growth factor receptor Kit (Homo sapiens), P10721 [D816H]; experiment: as §1; conditions: at 100 nM
[9] = biological target: Mast/stem cell growth factor receptor Kit (Homo sapiens, UniProt P10721); experiment: as §1; conditions: at 100 nM
[10] = system: Mast/stem cell growth factor receptor Kit (Homo sapiens), P10721 [V559D,V654A]; experiment: as §1; conditions: at 100 nM
[11] = system: Mast/stem cell growth factor receptor Kit (Homo sapiens), P10721 [V559D,T670I]; experiment: as §1; conditions: at 100 nM
Mast/stem cell growth factor receptor Kit (Homo sapiens), P10721 [V559D,T670I], sequence (P10721 whole entry V559D/T670I): as the sequence (P10721 whole entry L576P) above, with V559D, P576L, T670I counted along it

[12] = system: Mast/stem cell growth factor receptor Kit (Homo sapiens), P10721 [A829P]; experiment: as §1; conditions: at 100 nM
[13] = system: Mast/stem cell growth factor receptor Kit (Homo sapiens), P10721 [D816V]; experiment: as §1; conditions: at 100 nM
[14] = system: Mast/stem cell growth factor receptor Kit (Homo sapiens), P10721 [V559D]; experiment: as §1; conditions: at 100 nM
Mast/stem cell growth factor receptor Kit (Homo sapiens), P10721 [V559D], sequence (P10721 whole entry V559D): as the sequence (P10721 whole entry L576P) above, with V559D, P576L counted along it

SMILES: CN(C)C/C=C/C(=O)Nc1ccc(C(=O)N2CCCC(Nc3ncc(Cl)c(-c4c[nH]c5ccccc45)n3)C2)cc1 (stereo not drawn)
- % of control [1]: 81%

SMILES: Nc1cnc(N2CCc3cc(S(=O)(=O)Nc4c(F)cc(Cl)cc4F)cc(N4CCCC4=O)c32)nc1 [TP-020n]
- % of control [2]: 100%

SMILES: N#Cc1cccc(-c2c[nH]c3ncnc(N4CCOCC4)c23)c1
- % of inhibition [3]: 2%

SMILES: CC[C@@H]1[C@H](F)C(=O)N[C@@H]1COc1nccc2cc(C(N)=O)c(OC)cc12 [ZIMLOVISERTIB]
- % of inhibition [4]: -4.6%
- % of inhibition ([5]; at 0.01 µM): -24.7%
- % of inhibition ([5]; at 0.04 µM): -15%
- % of inhibition ([5]; at 0.2 µM): -4.7%
- % of inhibition ([5]; at 1 µM): -15.6%
- % of inhibition ([5]; at 5 µM): -19.6%
- % of inhibition [6]: -5.4%

SMILES: Cc1cc(F)c(C(=O)Nc2cccc(-c3nncn3C(C)C)n2)cc1-n1cnc(C2CC2)c1
- % of control [7]: 94%
- % of control [8]: 79%
- % of control [9]: 89%
- % of control [10]: 100%
- % of control [11]: 100%
- % of control [12]: 82%
- % of control [13]: 84%
- % of control [14]: 92%
